Data from US4239778A, “Azaprostanoic acid analogs and their use as inhibitors of platelet aggregation” (priority 1978, dated 1980).
Entries after “also recorded” stand apart in the source; their conditions may differ.

Columns and labels:
ADP-induced aggregation = details: vs PGE1; cited from earlier work
platelets (human PRP) = assay: Arachidonic acid-induced platelet aggregation (method of Born); type: cell-based; details: for inhibition at 10 µM: Homo sapiens, Platelet, human PRP; for inhibition of arachidonic acid-induced platelet aggregation (in words): 10 μM inhibitor
Procedure: The effect of various azaprostanoic acids of the invention on arachidonic acid-induced platelet aggregation was determined according to the method of Born, Nature, 194, 927 (1962). At a concentration of 10 μM, trans-13-azaprostanoic acid, and cis-15-azaprostanoic acid, inhibit aggregation 100% and 91%, respectively in response to 300 μM arachidonare. Both the cis and trans-13-aza-20-homoprostanoic acid analogs show significant inhibitory activity, 50% and 71%, respectively.
The relative inhibitory activities of the azaprostanoic acids were determined by varying the concentration of arachidonic acid while keeping the inhibitor concentration constant.

[1] = target: T1, prostaglandin synthetase (cyclooxygenase) (Bos taurus, UniProt O62664); assay: Inhibition of prostaglandin synthetase (cyclooxygenase): arachidonic acid-dependent formation of adrenochrome from L-epinephrine; type: biochemical, bovine (seminal vesicles); details: for inhibition at 500 µM / inhibition of cyclooxygenase (in words): 5×10^-4 M; for inhibition at 500 µM: read-out: inhibitory activity on cyclooxygenase
T1 construct: adrenochrome assay with arachidonic acid
T1 sequence (O62664 25-600): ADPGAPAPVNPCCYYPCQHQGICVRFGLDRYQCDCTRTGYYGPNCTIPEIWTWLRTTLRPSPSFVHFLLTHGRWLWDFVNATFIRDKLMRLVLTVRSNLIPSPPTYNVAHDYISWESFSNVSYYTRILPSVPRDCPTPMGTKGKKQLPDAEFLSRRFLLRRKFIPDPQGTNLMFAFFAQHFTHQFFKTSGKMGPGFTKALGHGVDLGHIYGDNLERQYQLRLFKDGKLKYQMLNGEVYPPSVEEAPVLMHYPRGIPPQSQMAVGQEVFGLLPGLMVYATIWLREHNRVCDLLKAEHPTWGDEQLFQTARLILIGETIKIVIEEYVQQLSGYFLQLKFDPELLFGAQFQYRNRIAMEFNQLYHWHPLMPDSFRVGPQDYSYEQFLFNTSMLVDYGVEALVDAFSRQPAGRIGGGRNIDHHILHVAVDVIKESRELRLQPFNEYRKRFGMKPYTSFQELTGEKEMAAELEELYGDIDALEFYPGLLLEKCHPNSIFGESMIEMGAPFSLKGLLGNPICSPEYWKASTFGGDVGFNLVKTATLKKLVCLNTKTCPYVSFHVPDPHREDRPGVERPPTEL
Procedure: A representative sample of the 13-azaprostanoic acid derivatives, and cis-15-azaprostanoic acid were tested for their effect as inhibitors of prostaglandin synthetase (cyclooxygenase). The basis of the assay is the measurement of the arachidonic acid-dependent formation of adrenochrome from L-peinephrine during prostaglandin biosynthesis [See, generally, the procedure of Takaguchi, et al., Prostaglandins, 2, 169 (1972)].
In order to check the possibility that the compounds might be inhibitors of the cyclooxygenase enzyme, they were tested in a standard prostaglandin biosynthesis assay according to the method of Takagushi, et al., Prostaglandins, 2, 169 (1972). The basis of the assay is the measurement of the arachidonic acid-dependent formation of adrenochrome from L-epinephrine during prostaglandin biosynthesis. Although the assay is an indirect measurement of cyclooxygenase activity, it offers the advantage that total enzyme activity is measured and is not limited to the measurement of any one product of the biotransformation.

thromboxane synthetase = details: cited from earlier work
[2] = test system: aspirin-treated platelets (human PRP); assay: Aggregation of aspirin-treated platelets by transferred externally generated endoperoxides/thromboxane A2; type: cell-based
Procedure: The effect of trans-13-azaprostanoic acid on platelet aggregation induced by externally generated endoperoxides and thromboxane A2 was investigated. The endoperoxides and thromboxane A2 were generated by the addition of 500 μM arachidonic acid to 0.75 ml of human platelet-rich plasma (PRP). […] The endoperoxides and thromboxane transferred caused the aspirin-treated platelets to aggregate.
It has been shown that the formation of thromboxanes is closely associated with the initiation of platelet aggregation and occurs rapidly (within 30 sec.) when induced by arachidonic acid. Therefore, the aggregating effect of thromboxane A2 can be studied by first generating the agent in one sample of PRP, and then transferring a portion of this to a second sample of PRP. […] Thus, any aggregation induced by transferred material is due to thromboxane A2 and/or prostaglandin endoperoxides. […] This experiment was repeated several times with identical results.

[3] = test system: platelets (human platelet rich plasma); assay: ADP-induced primary (reversible) platelet aggregation; type: cell-based; details: 100 μM, 2 min. pretreatment; 10 μM ADP
Excerpt: No effect was observed on the ADP-induced primary aggregation of platelets.

platelet rich plasma = assay: Platelet aggregation with 500 μM arachidonic acid (Table IV); type: cell-based
Procedure: (§1) Platelet rich plasma was aggregated with 500 μM arachidonic acid and three minutes following arachidonate addition, aliquots of the plasma were drawn for TXB2 determinations.

[4] = test system: platelet conversion of AA to thromboxane B2 (TXB2); assay: TXB2 formation in platelet rich plasma aggregated with arachidonic acid (radioimmunoassay); type: cell-based; details: AA 500 μM alone
Procedure: as §1

cyclooxygenase = details: cited from earlier work
[5] = in vivo; cited from earlier work
[6] = 10^-5 M (10 μM) inhibitor, 300 μM arachidonate
[7] = 10^-5 M inhibitor, 400 μM arachidonate
[8] = 10^-5 M inhibitor, 500 μM arachidonate

For CCCC[C@H](O)/C=C/[C@H]1[C@H](O)CC(=O)[C@@H]1CCCCCCC(=O)O [Example 20-nor-PGE1, 20-nor-PGE1], the “potency relative to PGE1 as inhibitor of ADP-induced aggregation (in words)” value (ADP-induced aggregation) is given as “only half as potent as PGE1”.
In the case of CCCCCCCCN[C@H]1CCC[C@H]1CCCCCCC(=O)O (relative stereo) [Example 6 cis, cis-13-Aza-20-homoprostanoic acid], the inhibition at 10 µM (platelets (human PRP); [6]) is reported as 50%, the inhibition at 10 µM (platelets (human PRP); [7]) is reported as 11% and the inhibition at 10 µM (platelets (human PRP); [8]) is reported as 0%. For the same compound, the inhibition at 500 µM [1] was roughly 30%.
For CN(C)CCCOc1nn(Cc2ccccc2)c2ccccc12 [Benzydamine], the “inhibition of thromboxane synthetase (in words)” value (thromboxane synthetase) is given as “more than twice as effective in inhibiting thromboxane synthetase than in inhibiting prostaglandin biosynthesis (cyclooxygenase)”.
With CCCCCCCN[C@@H]1CCC[C@H]1CCCCCCC(=O)O (relative stereo) [Example 4 trans, trans-13-azaprostanoic acid] the “aggregation induced by transferred thromboxane A2/endoperoxide mixture” value ([2]; 100 μM pre-incubation, aspirin-treated platelets) was “totally inhibited; also recorded: no aggregation was observed”, the “effect on ADP-induced primary aggregation” value (from here on “effect”) [3] was “did not alter reversible, primary phase aggregation” and the inhibition at 10 µM (platelets (human PRP); [6]) was 100%. The inhibition at 10 µM (platelets (human PRP); [7]) was 66%, the inhibition at 10 µM (platelets (human PRP); [8]) was 19% and the “inhibition of platelet aggregation (in words)” value (platelets (human PRP); summary of screening) was “potent inhibitors of platelet aggregation”. For the same compound, the “inhibition of cyclooxygenase (in words)” value [1] was “did not significantly inhibit”.
In the case of CCCCCC[C@H](O)/C=C/[C@H]1[C@H](O)CC(=O)[C@@H]1CCCCCCC(=O)O [Example 20-homo-PGE1, 20-homo-PGE1], the “potency relative to PGE1 as inhibitor of ADP-induced aggregation” value (ADP-induced aggregation) is given as 3.82 times.
Work on CCCCCCN[C@@H]1CCC[C@H]1CCCCCCC(=O)O (relative stereo) [Example 5 trans, trans-13-aza-20-norprostanoic acid] yielded an inhibition at 10 µM (platelets (human PRP); [6]) of 14%, an inhibition at 10 µM (platelets (human PRP); [7]) of 0% and an inhibition at 10 µM (platelets (human PRP); [8]) of 0%. For the same compound, the “inhibition of cyclooxygenase (in words)” value [1] was “did not significantly inhibit”.
Compound CCCCCCCCN[C@@H]1CCC[C@H]1CCCCCCC(=O)O (relative stereo) [Example 6 trans, trans-13-aza-20-homoprostanoic acid] has an inhibition at 10 µM (platelets (human PRP); [6]) of 71%, an inhibition at 10 µM (platelets (human PRP); [7]) of 7% and an inhibition at 10 µM (platelets (human PRP); [8]) of 0%. It also gave an inhibition at 500 µM [1] of roughly 30%.
With CCCCC/C=C\C/C=C\C/C=C\C/C=C\CCCC(=O)O [Arachidonic Acid (AA), Arachidonic Acid] the “% Aggregation” value (platelet rich plasma; AA 500 μM alone) was 80%, the “aggregation of aspirin-treated platelets by arachidonic acid” value ([2]; 500 μM arachidonic acid, aspirin 0.5 mg/ml) was “did not cause aggregation” and the TXB2 [4] was 1179 ± 37 ng/mL.
In the case of COc1ccc2c(c1)c(CC(=O)O)c(C)n2C(=O)c1ccc(Cl)cc1 [indomethacin, reference compound], the “inhibition of aggregation (in words)” value (platelet rich plasma; indomethacin 20 μM) is listed as “totally blocks aggregation”, the “inhibition of prostaglandin biosynthesis / cyclooxygenase (in words)” value (cyclooxygenase) is listed as “inhibit prostaglandin biosynthesis by blocking the conversion of substrate fatty acids to endoperoxides” and the “inhibition of prostaglandin biosynthesis (in words)” value ([1]; indomethacin 2×10^-5 M) is listed as “completely inhibited”. For the same compound, the inhibition at 20 µM ([1]; read-out: inhibition of enzyme activity) was 100%.
In the case of CCCCCNCC[C@H]1CCC[C@H]1CCCCCCC(=O)O (relative stereo) [Example 8 cis, 15-Azaprostanoic acid], the “effect” value [3] is reported as “did not alter reversible, primary phase aggregation”, the inhibition at 10 µM (platelets (human PRP); [6]) is reported as 91% and the inhibition at 10 µM (platelets (human PRP); [7]) is reported as 16%. The inhibition at 10 µM (platelets (human PRP); [8]) was 0%.
In the case of O=C(O)CCCCCC[C@@H]1CCC[C@H]1NCc1ccccc1 (relative stereo) [Example 3 trans], the “effect” value [3] is reported as “did not alter reversible, primary phase aggregation”, the “inhibition of arachidonic acid-induced platelet aggregation (in words)” value (platelets (human PRP)) is reported as “inactive” and the inhibition at 10 µM (platelets (human PRP); [6]) is reported as 0%. For the same compound, the inhibition at 10 µM (platelets (human PRP); [7]) was 0%, the inhibition at 10 µM (platelets (human PRP); [8]) was 0% and the “inhibition of cyclooxygenase (in words)” value [1] was “did not significantly inhibit”.
In the case of CCCCC[C@H](O)/C=C/[C@H]1C(=O)C[C@H](O)[C@@H]1C/C=C\CCCC(=O)O [PGD2], the “biological half-life (in words)” value [5] is given as “very short biological half-lives”.
For CCCCCCCN[C@@H]1CCC[C@@H]1CCCCCCC(=O)O (relative stereo) [cis-13-aza], the “inhibition of arachidonic acid-induced platelet aggregation (in words)” value (platelets (human PRP)) was “inactive”.
For CCCCC[C@H](O)/C=C/[C@H]1[C@H](O)CC(=O)[C@@H]1CCCCCCC(=O)O [PGE1], the “biological half-life (in words)” value [5] is listed as “very short biological half-lives”.
For CCCCCCCN[C@H]1CCC[C@H]1CCCCCCC(=O)O (relative stereo) [Example 4 cis, cis-13-Azaprostanoic acid], the “effect” value [3] was “did not alter reversible, primary phase aggregation”, the inhibition at 10 µM (platelets (human PRP); [6]) was 43% and the inhibition at 10 µM (platelets (human PRP); [7]) was 11%. The inhibition at 10 µM (platelets (human PRP); [8]) was 0% and the “inhibition of cyclooxygenase (in words)” value [1] was “did not significantly inhibit”.
